Test systems include EKVX NSCLC; SNB-75 CNS; OVCAR-4 ovarian; HL-60(TB) leukemia; K-562 leukemia; RXF 393 renal; SF-539 CNS; NCI-H226 lung; SF-268 CNS; TK-10 renal.
Test in all cases: DTP human tumour cell line panel, 48 h

In PubChem BioAssay (NCI) one finds TGI and GI50 data, which are given here for 8 compounds.

Where “and” joins values, the source holds several entries; their conditions need not be identical. Identical values can stand only once.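 96-well plates; 48 h exposure; 5 concentrations. Endpoints by linear interpolation between flanking doses. Not reached: highest tested concentration assigned. At the GI50, growth is halved. The concentration for full growth arrest is given as TGI.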

On to `Cc1cc(=O)[nH]c2cc3oc4ccccc4c3cc12`, for which the TGI is greater than 100 µM in the assay on EKVX NSCLC; greater than 100 µM in the assay with SNB-75 CNS; greater than 100 µM with OVCAR-4 ovarian; 59.3 µM with HL-60(TB) leukemia; greater than 100 µM with K-562 leukemia; greater than 100 µM in the assay with RXF 393 renal. Also, the TGI in the assay with SF-539 CNS was greater than 100 µM; in the assay on NCI-H226 lung, greater than 100 µM; in the assay on SF-268 CNS, greater than 93.7 µM; in the assay on TK-10 renal it was greater than 100 µM.
Consider `C/C(CCn1[nH]c(=O)ccc1=O)=N\O`, for which the TGI with EKVX NSCLC, in the assay on SNB-75 CNS, in the assay with OVCAR-4 ovarian, in the assay with HL-60(TB) leukemia, in the assay on K-562 leukemia and in the assay on RXF 393 renal was greater than 100 µM each time. For the same compound, the TGI with SF-539 CNS, in the assay with NCI-H226 lung, in the assay on SF-268 CNS and in the assay on TK-10 renal was greater than 100 µM in each case.
For `O=C(CCl)N1c2ccccc2Oc2ccc3ccccc3c21`, the GI50 was 2.2 µM with EKVX NSCLC; 1.47 µM in the assay with SNB-75 CNS; 1.44 µM in the assay on OVCAR-4 ovarian; 1.45 µM with HL-60(TB) leukemia; 0.31 µM with K-562 leukemia; 1.73 µM in the assay with RXF 393 renal. Also, the GI50 is 1.59 µM with SF-539 CNS, 1.63 µM with NCI-H226 lung, 1.52 µM in the assay on SF-268 CNS and 0.769 µM in the assay on TK-10 renal. In addition, the TGI in the assay with EKVX NSCLC turned out to be 5.9 µM; in the assay with SNB-75 CNS it was 2.82 µM; in the assay with OVCAR-4 ovarian, 3.34 µM; in the assay with HL-60(TB) leukemia, 4.86 µM; in the assay with K-562 leukemia, 1.42 µM; in the assay on RXF 393 renal, 3.17 µM. In addition, the TGI came out at 3.1 µM with SF-539 CNS, 3.26 µM in the assay on NCI-H226 lung, 2.94 µM with SF-268 CNS and 1.7 µM with TK-10 renal.
Regarding `CCCCCCCC(=O)SCC/C=C/[C@@H]1CC(=O)NCc2cccc(n2)C2=N[C@@](C)(CS2)C(=O)N[C@@H](C(C)C)C(=O)N1`, the GI50 with EKVX NSCLC was 1.75 µM; with SNB-75 CNS, 0.223 µM; in the assay on OVCAR-4 ovarian, 0.766 µM; in the assay with HL-60(TB) leukemia, 0.509 µM; in the assay with K-562 leukemia it was 0.658 µM; in the assay with RXF 393 renal, 2.14 µM. The GI50 in the assay with SF-539 CNS is 2.72 µM; in the assay with NCI-H226 lung, 7.19 µM; in the assay with SF-268 CNS it was 2.28 µM; in the assay on TK-10 renal, 1.09 µM. The TGI in the assay with EKVX NSCLC was greater than 33.3 µM; in the assay with SNB-75 CNS, greater than 33.3 µM; with OVCAR-4 ovarian, greater than 33.3 µM; in the assay with HL-60(TB) leukemia, greater than 33.3 µM; in the assay with K-562 leukemia, greater than 33.3 µM; with RXF 393 renal, 19.9 µM. The TGI in the assay with SF-539 CNS is greater than 33.3 µM; in the assay on NCI-H226 lung, greater than 33.3 µM; in the assay with SF-268 CNS it was greater than 33.3 µM; in the assay with TK-10 renal it was 24.8 µM.
Consider `COc1cc2nc(-c3ccc(C(F)(F)F)cc3)cc(OCCCN3CCC(O)CC3)c2cc1OC`, for which the GI50 in the assay on EKVX NSCLC is 1.03 µM; in the assay on SNB-75 CNS, 2.58 µM; with OVCAR-4 ovarian, 9.14 µM; with HL-60(TB) leukemia, 13.9 µM; with K-562 leukemia it was 1.79 µM; in the assay on RXF 393 renal it was 1.34 µM. Also, the GI50 was 5.75 µM in the assay on SF-539 CNS, 1.59 µM in the assay with NCI-H226 lung, 5.76 µM in the assay with SF-268 CNS and 11.5 µM in the assay with TK-10 renal. Besides, the TGI was found to be 21.7 µM in the assay with EKVX NSCLC; 10.8 µM in the assay with SNB-75 CNS; 22 µM in the assay with OVCAR-4 ovarian; 31.9 µM in the assay with HL-60(TB) leukemia; 16.7 µM with K-562 leukemia; 7.53 µM with RXF 393 renal. Besides, the TGI in the assay on SF-539 CNS was 20.8 µM; in the assay with NCI-H226 lung it was 5.37 µM; with SF-268 CNS, 24.7 µM; with TK-10 renal, 25.7 µM.
In the case of `CC(C)c1ccc(C(C)C(=O)N(CC2=C(C(C)c3ccccn3)c3ccccc3C2)C(C)C)cc1` (stereo unspecified), the GI50 was 1.72 µM in the assay with EKVX NSCLC; 3.17 µM with SNB-75 CNS; 3.07 µM with OVCAR-4 ovarian; 2.15 µM in the assay on HL-60(TB) leukemia; 2.39 µM with K-562 leukemia; 2.38 µM in the assay with RXF 393 renal. Moreover, the GI50 in the assay on SF-539 CNS was 5.62 µM; in the assay with NCI-H226 lung, 2.68 µM; in the assay with SF-268 CNS it was 4.62 µM; in the assay with TK-10 renal it was 4.81 µM. The TGI with EKVX NSCLC was 8.31 µM; with SNB-75 CNS, greater than 100 µM; with OVCAR-4 ovarian, 86.7 µM; in the assay with HL-60(TB) leukemia it was 5.44 µM; in the assay on K-562 leukemia it was 15 µM; in the assay on RXF 393 renal, 14.3 µM. Also, the TGI in the assay with SF-539 CNS was 26.7 µM; with NCI-H226 lung, 21.7 µM; in the assay with SF-268 CNS, greater than 100 µM; with TK-10 renal, greater than 100 µM.
Regarding `NC1CCC(Nc2nc(NCc3ccc(-c4ccco4)nc3)c3ncn(C4CCCC4)c3n2)CC1` (stereo unspecified), the GI50 with EKVX NSCLC was 0.0465 µM; in the assay with SNB-75 CNS, 0.0101 µM; in the assay on OVCAR-4 ovarian, 0.0307 µM; in the assay with HL-60(TB) leukemia it was 0.0193 µM; in the assay with K-562 leukemia it was 0.0417 µM; with RXF 393 renal it was 0.0179 µM. The GI50 in the assay with SF-539 CNS is 0.0379 µM; in the assay on NCI-H226 lung, 0.126 µM; in the assay with SF-268 CNS it was 0.011 µM; with TK-10 renal it was 0.16 µM. In addition, the TGI is 0.538 µM and 0.242 µM in the assay with EKVX NSCLC; 0.0299 µM in the assay with SNB-75 CNS; 0.0729 µM in the assay on HL-60(TB) leukemia; 1.17 µM in the assay on K-562 leukemia; 0.04 µM in the assay with RXF 393 renal; 0.204 µM in the assay with SF-539 CNS. The TGI was 0.169 µM and 1.3 µM in the assay on SF-268 CNS; 12.8 µM with TK-10 renal.
Consider `CSc1ccccc1C#C/C=C\C#Cc1ccccc1N1CCCC1=O`, for which the GI50 in the assay on EKVX NSCLC is greater than 10.3 µM; with SNB-75 CNS, greater than 10.8 µM; in the assay on OVCAR-4 ovarian, greater than 22.1 µM; in the assay on HL-60(TB) leukemia, 2.43 µM; in the assay on RXF 393 renal, 2.91 µM; in the assay with SF-539 CNS, greater than 11.4 µM. In addition, the GI50 with NCI-H226 lung was greater than 11.4 µM; in the assay on SF-268 CNS, greater than 10.2 µM; with TK-10 renal it was greater than 24.6 µM. Besides, the TGI in the assay with EKVX NSCLC is greater than 50 µM; with SNB-75 CNS, greater than 50 µM; in the assay with OVCAR-4 ovarian, greater than 50 µM; in the assay with K-562 leukemia, greater than 12.2 µM; in the assay with RXF 393 renal, 25.8 µM; in the assay on SF-539 CNS, greater than 50 µM. The TGI in the assay with NCI-H226 lung, in the assay on SF-268 CNS and in the assay with TK-10 renal was greater than 50 µM in each case.
